Tests used:
[1] = system: zebrafish embryos; test: Whitening efficacy in zebrafish experiment (melanin plaques); type: in vivo; settings: 10 mM (about 1421 μg/ml)
Protocol: The wild-type zebrafish were stimulated to spawn, and the eggs spawned within one hour were collected. Upon 9 hours after fertilization, the embryos were screened by microscope to confirm the developmental state after fertilization. Each group had 12 fish embryos. The E3 culture medium, which was the zebrafish embryo culture medium, served as the control group. The positive control group was added with kojic acid (Kojic acid). Each experimental group was added with Example 1, Comparative example 1 and Comparative example 2, respectively. As zebrafish embryos produced melanin within 24 hours after fertilization, the treatment finished before the production of melanin, and the melanin production state in the hatched fish was observed upon 72 hours after fertilization. First, the fish was anesthetized and placed on a flat surface. The photo was taken from a top view, and the melanin plaques were analyze by the software of ImageJ. The intensity of the melanin plaque in the control group served as the standard, that is, the melanin amount thereof was 100%. The relative melanin amounts of the rest of the groups were calculated.

[2] = system: melanosis; settings: 1% kojic acid applied to male and female subjects; cited from earlier work

O=c1cc(CO)occ1O [kojic acid]
Inhibition rate of melanin production [1]: about 55% | melanosis [2]: significantly inhibited

Source: US12280138B2, “Dedifferentiated cell extract of Bletilla and method for whitening, anti-oxidation and anti-wrinkling applying the same, and cosmetic comprising the same” (CHLITINA INTELLIGENCE LIMITED, priority 2021, dated 2025)
